Where two headings read alike, the source gives them in different places.
Legend:
Assay in all cases: biochemical
Set-up in all cases: In vitro kinase panel profiling, per cent remaining kinase activity at 10 uM
[1] = target: T1, AMPKα1(h) (Homo sapiens, UniProt Q13131); settings: atp_concentration=45, read-out: % of control remaining
T1 construct: gene PRKAA1
Source text: (§1) We derisk potential for off-target activity by profiling the compound in a CEREP panel, a standard secondary pharmacology assessment, as well as a kinase panel to derisk a potential hinge-binding motif in our leads, and a PARP panel to derisk activity against human […]. Reassuringly, the compounds are selective, with the only off-targets being moderate human CHRM2 and KOR receptors activity associated with ASAP-0011198.

[2] = target: T2, Abl(h) (Homo sapiens, UniProt P00519); settings: atp_concentration=45, read-out: % of control remaining
T2 construct: gene ABL1
Source text: as §1

[3] = target: CDK1/cyclinB(h) (Homo sapiens, UniProt P06493); settings: atp_concentration=45, read-out: % of control remaining
Source text: as §1

[4] = target: CDK2/cyclinA(h) (Homo sapiens, UniProt P24941); settings: atp_concentration=45, read-out: % of control remaining
Source text: as §1

[5] = target: T3, CK2α2(h) (Homo sapiens, UniProt P19784); settings: atp_concentration=10, read-out: % of control remaining
T3 construct: gene CSNK2A2
Source text: as §1

[6] = target: EGFR(h) (Homo sapiens, UniProt P00533); settings: atp_concentration=10, read-out: % of control remaining
Source text: as §1

[7] = target: EphA5(h) (Homo sapiens, UniProt P54756); settings: atp_concentration=10, read-out: % of control remaining
Source text: as §1

[8] = target: T4, GSK3β(h) (Homo sapiens, UniProt P49841); settings: atp_concentration=15, read-out: % of control remaining
T4 construct: gene GSK3B
Source text: as §1

[9] = target: T5, IGF-1R(h) (Homo sapiens, UniProt P08069); settings: atp_concentration=200, read-out: % of control remaining
T5 construct: gene IGF1R
Source text: as §1

[10] = target: T6, MLK1(h) (Homo sapiens, UniProt P80192); settings: atp_concentration=45, read-out: % of control remaining
T6 construct: gene MAP3K9
Source text: as §1

[11] = target: T7, Mnk2(h) (Homo sapiens, UniProt Q9HBH9); settings: atp_concentration=120, read-out: % of control remaining
T7 construct: gene MKNK2
Source text: as §1

[12] = target: PAK2(h) (Homo sapiens, UniProt Q13177); settings: atp_concentration=90, read-out: % of control remaining
Source text: as §1

[13] = target: T8, PKA(h) (Homo sapiens, UniProt P17612); settings: atp_concentration=10, read-out: % of control remaining
T8 construct: gene PRKACA
Source text: as §1

[14] = target: T9, PKBα(h) (Homo sapiens, UniProt P31749); settings: atp_concentration=155, read-out: % of control remaining
T9 construct: gene AKT1
Source text: as §1

[15] = target: T10, TAK1(h) (Homo sapiens, UniProt O43318); settings: atp_concentration=45, read-out: % of control remaining
T10 construct: gene MAP3K7
T10 sequence (O43318 1-606): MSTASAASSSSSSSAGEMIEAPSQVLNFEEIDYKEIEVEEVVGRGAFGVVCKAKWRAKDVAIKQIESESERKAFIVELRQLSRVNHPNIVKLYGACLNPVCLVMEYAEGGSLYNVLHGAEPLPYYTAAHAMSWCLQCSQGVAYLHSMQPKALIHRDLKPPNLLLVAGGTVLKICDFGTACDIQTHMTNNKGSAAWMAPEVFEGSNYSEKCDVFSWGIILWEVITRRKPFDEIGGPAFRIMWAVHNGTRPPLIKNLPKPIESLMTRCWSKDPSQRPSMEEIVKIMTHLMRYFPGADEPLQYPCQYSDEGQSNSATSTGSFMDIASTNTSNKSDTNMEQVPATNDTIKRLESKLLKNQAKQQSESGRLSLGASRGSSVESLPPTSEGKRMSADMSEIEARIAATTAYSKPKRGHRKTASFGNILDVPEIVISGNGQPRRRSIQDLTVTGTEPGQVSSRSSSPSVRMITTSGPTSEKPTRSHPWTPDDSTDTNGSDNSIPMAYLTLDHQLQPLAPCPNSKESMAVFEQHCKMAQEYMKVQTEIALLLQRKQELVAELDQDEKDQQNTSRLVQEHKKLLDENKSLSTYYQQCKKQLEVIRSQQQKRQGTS
Source text: as §1

[16] = target: T11, c-RAF(h) (Homo sapiens, UniProt P04049); settings: atp_concentration=120, read-out: % of control remaining
T11 construct: gene RAF1
Source text: as §1

T11 sequence (P04049 whole entry): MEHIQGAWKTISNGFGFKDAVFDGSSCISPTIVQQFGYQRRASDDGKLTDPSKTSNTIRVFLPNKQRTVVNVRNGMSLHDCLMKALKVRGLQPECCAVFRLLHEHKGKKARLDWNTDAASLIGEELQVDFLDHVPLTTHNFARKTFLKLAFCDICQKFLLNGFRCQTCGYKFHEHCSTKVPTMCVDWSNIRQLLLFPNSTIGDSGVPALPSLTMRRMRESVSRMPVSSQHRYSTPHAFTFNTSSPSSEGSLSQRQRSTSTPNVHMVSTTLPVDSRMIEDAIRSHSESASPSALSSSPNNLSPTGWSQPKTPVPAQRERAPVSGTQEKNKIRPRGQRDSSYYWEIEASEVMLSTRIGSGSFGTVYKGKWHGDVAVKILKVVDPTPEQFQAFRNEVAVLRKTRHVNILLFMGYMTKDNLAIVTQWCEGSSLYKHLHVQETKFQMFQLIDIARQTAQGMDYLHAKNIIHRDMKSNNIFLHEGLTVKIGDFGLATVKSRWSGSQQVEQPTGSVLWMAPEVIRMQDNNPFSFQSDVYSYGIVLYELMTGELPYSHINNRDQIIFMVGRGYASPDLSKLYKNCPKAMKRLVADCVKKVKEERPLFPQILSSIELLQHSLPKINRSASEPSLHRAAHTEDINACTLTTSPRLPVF
Chain of CDK1/cyclinB(h) (P06493 whole entry): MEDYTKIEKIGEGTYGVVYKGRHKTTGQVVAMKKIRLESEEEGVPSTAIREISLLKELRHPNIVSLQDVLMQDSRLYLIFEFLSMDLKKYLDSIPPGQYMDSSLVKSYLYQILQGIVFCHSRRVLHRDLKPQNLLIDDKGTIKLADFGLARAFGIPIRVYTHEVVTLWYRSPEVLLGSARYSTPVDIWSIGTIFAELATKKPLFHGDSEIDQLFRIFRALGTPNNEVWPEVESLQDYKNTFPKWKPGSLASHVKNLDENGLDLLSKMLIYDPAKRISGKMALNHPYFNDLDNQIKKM
Chain of CDK1/cyclinB(h) (P14635 whole entry partner): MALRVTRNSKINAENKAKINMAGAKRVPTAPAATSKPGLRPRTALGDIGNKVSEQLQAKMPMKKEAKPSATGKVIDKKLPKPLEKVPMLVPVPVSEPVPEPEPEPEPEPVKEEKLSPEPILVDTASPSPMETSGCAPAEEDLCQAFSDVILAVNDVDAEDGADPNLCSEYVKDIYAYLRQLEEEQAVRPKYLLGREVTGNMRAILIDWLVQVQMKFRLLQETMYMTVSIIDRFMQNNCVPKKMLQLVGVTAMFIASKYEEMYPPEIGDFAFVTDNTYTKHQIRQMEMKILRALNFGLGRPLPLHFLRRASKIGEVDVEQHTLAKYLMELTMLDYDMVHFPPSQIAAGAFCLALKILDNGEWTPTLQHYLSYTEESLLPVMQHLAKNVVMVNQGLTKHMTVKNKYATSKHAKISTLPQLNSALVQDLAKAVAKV
T7 sequence (Q9HBH9 whole entry): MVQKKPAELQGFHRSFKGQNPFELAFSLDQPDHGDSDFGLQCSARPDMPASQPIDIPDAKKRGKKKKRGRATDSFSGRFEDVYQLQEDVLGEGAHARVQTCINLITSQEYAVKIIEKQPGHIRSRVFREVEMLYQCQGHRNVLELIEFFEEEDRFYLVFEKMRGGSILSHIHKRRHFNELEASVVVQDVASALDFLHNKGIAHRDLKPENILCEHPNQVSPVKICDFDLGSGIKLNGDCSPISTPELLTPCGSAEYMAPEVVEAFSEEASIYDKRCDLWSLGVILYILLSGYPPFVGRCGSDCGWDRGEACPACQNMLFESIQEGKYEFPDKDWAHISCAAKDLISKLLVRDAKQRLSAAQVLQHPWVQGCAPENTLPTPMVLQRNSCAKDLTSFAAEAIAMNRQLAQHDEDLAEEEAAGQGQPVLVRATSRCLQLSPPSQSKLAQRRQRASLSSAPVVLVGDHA
Chain of PAK2(h) (Q13177 whole entry): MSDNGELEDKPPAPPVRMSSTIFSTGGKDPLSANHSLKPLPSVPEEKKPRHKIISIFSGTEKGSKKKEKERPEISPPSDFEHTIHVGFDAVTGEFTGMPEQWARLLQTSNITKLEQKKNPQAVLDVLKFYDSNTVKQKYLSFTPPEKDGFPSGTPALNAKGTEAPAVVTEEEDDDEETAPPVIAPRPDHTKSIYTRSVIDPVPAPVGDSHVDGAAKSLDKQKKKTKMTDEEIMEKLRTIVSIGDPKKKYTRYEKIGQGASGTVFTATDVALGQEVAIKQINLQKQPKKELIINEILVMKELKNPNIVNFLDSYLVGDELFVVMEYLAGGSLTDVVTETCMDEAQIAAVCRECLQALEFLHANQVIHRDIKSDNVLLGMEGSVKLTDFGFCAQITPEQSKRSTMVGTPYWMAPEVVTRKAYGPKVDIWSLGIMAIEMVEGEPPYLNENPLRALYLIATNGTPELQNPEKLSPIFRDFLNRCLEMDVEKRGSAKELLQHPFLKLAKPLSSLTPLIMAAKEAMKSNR
T5 sequence (P08069 whole entry): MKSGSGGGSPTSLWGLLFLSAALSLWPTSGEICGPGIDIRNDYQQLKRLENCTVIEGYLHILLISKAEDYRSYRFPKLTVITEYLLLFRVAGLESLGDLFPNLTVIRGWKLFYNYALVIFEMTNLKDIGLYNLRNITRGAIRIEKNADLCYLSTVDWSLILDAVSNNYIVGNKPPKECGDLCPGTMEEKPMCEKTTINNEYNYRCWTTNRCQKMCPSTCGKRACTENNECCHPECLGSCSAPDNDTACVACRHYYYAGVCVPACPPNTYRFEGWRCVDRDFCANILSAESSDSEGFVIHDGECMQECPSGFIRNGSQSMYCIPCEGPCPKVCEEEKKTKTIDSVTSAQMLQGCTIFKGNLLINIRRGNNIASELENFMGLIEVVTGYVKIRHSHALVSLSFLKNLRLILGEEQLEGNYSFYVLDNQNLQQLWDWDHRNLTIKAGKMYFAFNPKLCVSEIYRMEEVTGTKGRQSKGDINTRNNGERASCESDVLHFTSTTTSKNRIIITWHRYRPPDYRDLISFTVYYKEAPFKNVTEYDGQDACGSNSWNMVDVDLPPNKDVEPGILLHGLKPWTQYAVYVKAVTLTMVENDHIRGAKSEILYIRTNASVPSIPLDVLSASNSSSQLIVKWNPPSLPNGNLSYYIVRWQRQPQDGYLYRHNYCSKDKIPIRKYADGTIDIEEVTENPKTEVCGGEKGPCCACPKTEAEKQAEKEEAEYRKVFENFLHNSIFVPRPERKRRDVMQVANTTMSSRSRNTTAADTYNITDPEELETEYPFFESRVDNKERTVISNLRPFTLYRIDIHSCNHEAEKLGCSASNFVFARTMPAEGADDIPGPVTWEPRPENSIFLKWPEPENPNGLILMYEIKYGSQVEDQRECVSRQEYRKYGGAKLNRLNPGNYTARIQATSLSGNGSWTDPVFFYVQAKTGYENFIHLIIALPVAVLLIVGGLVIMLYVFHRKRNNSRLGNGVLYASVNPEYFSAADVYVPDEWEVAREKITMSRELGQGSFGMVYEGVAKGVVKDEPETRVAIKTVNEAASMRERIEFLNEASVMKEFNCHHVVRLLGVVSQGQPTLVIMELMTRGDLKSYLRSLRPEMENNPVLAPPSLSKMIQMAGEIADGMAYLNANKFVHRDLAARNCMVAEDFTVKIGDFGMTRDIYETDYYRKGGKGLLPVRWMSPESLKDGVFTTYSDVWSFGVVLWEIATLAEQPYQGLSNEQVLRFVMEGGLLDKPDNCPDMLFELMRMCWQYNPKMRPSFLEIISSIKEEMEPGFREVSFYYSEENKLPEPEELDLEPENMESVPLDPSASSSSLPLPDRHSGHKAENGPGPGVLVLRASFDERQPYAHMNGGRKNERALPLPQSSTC
Chain of EGFR(h) (P00533 whole entry): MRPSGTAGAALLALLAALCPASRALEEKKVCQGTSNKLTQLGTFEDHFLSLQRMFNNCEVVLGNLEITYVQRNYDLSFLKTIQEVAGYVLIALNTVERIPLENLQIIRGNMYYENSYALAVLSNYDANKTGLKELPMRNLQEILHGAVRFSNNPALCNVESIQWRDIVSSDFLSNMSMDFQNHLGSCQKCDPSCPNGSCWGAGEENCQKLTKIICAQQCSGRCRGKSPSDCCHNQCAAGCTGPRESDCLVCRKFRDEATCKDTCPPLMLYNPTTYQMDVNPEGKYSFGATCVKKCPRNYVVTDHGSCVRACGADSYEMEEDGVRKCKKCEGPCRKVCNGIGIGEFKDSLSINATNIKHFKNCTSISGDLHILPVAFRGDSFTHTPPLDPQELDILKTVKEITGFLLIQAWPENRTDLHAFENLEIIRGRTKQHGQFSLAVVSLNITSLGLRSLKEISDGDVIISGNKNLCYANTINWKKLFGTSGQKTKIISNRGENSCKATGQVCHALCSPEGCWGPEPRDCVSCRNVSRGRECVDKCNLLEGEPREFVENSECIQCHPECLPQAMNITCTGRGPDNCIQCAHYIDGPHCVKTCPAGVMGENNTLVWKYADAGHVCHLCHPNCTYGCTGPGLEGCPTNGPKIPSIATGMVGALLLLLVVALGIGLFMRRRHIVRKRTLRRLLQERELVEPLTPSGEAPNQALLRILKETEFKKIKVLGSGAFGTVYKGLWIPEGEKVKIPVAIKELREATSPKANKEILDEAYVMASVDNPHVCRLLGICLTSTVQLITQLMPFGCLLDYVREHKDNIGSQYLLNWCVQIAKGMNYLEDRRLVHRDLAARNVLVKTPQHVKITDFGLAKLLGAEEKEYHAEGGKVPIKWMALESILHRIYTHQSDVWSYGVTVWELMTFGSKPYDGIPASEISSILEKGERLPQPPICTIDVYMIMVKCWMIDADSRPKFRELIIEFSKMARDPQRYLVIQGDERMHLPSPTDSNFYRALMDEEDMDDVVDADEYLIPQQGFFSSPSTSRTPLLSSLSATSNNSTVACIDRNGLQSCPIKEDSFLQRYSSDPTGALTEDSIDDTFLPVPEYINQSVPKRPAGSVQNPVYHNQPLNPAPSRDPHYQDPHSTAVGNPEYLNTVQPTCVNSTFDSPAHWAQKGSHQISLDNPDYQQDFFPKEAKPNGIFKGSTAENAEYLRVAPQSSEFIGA

Work on `CC(C)C(Nc1ncnc2[nH]ccc12)c1ccc2c(c1)S(=O)(=O)CCC2` (centres unmarked) [ASAP-0008327] yielded a remaining activity at 10 µM ([1]; batch_name=ASAP-0008327-001) of 94%, a remaining activity at 10 µM ([2]; batch_name=ASAP-0008327-001) of 93% and a remaining activity at 10 µM ([3]; batch_name=ASAP-0008327-001) of 129%. It also gave a remaining activity at 10 µM ([4]; batch_name=ASAP-0008327-001) of 96%, a remaining activity at 10 µM ([5]; batch_name=ASAP-0008327-001) of 90% and a remaining activity at 10 µM ([6]; batch_name=ASAP-0008327-001) of 102%. For the same molecule, the remaining activity at 10 µM ([7]; batch_name=ASAP-0008327-001) was 110%, the remaining activity at 10 µM ([8]; batch_name=ASAP-0008327-001) was 107% and the remaining activity at 10 µM ([9]; batch_name=ASAP-0008327-001) was 88%. The remaining activity at 10 µM ([10]; batch_name=ASAP-0008327-001) was 81%, the remaining activity at 10 µM ([11]; batch_name=ASAP-0008327-001) was 89% and the remaining activity at 10 µM ([12]; batch_name=ASAP-0008327-001) was 110%. It also gave a remaining activity at 10 µM ([13]; batch_name=ASAP-0008327-001) of 98%, a remaining activity at 10 µM ([14]; batch_name=ASAP-0008327-001) of 96% and a remaining activity at 10 µM ([15]; batch_name=ASAP-0008327-001) of 83%. The remaining activity at 10 µM ([16]; batch_name=ASAP-0008327-001) was 97%.
Molecule `COc1ccc([C@@H](Cc2nnn[nH]2)NC(=O)c2ncnc3[nH]ccc23)cc1` [ASAP-0008340] has a remaining activity at 10 µM ([1]; batch_name=ASAP-0008340-001) of 101%, a remaining activity at 10 µM ([2]; batch_name=ASAP-0008340-001) of 98% and a remaining activity at 10 µM ([3]; batch_name=ASAP-0008340-001) of 108%. It also gave a remaining activity at 10 µM ([4]; batch_name=ASAP-0008340-001) of 97%, a remaining activity at 10 µM ([5]; batch_name=ASAP-0008340-001) of 88% and a remaining activity at 10 µM ([6]; batch_name=ASAP-0008340-001) of 96%. It also gave a remaining activity at 10 µM ([7]; batch_name=ASAP-0008340-001) of 106%, a remaining activity at 10 µM ([8]; batch_name=ASAP-0008340-001) of 105% and a remaining activity at 10 µM ([9]; batch_name=ASAP-0008340-001) of 106%. For the same molecule, the remaining activity at 10 µM ([10]; batch_name=ASAP-0008340-001) was 85%, the remaining activity at 10 µM ([11]; batch_name=ASAP-0008340-001) was 84% and the remaining activity at 10 µM ([12]; batch_name=ASAP-0008340-001) was 102%. The remaining activity at 10 µM ([13]; batch_name=ASAP-0008340-001) was 105%, the remaining activity at 10 µM ([14]; batch_name=ASAP-0008340-001) was 94% and the remaining activity at 10 µM ([15]; batch_name=ASAP-0008340-001) was 88%. The remaining activity at 10 µM ([16]; batch_name=ASAP-0008340-001) was 90%.
In the case of `CC(C)[C@@H](Nc1ncnc2[nH]c(-c3cnn(C)c3C#N)cc12)c1ccc2c(n1)OCCO2` [ASAP-0008418], the remaining activity at 10 µM ([1]; batch_name=ASAP-0008418-001) is reported as 116%, the remaining activity at 10 µM ([2]; batch_name=ASAP-0008418-001) is reported as 52% and the remaining activity at 10 µM ([3]; batch_name=ASAP-0008418-001) is reported as 95%. It also gave a remaining activity at 10 µM ([4]; batch_name=ASAP-0008418-001) of 95%, a remaining activity at 10 µM ([5]; batch_name=ASAP-0008418-001) of 86% and a remaining activity at 10 µM ([6]; batch_name=ASAP-0008418-001) of 81%. It also gave a remaining activity at 10 µM ([7]; batch_name=ASAP-0008418-001) of 91%, a remaining activity at 10 µM ([8]; batch_name=ASAP-0008418-001) of 85% and a remaining activity at 10 µM ([9]; batch_name=ASAP-0008418-001) of 108%. For the same molecule, the remaining activity at 10 µM ([10]; batch_name=ASAP-0008418-001) was 81%, the remaining activity at 10 µM ([11]; batch_name=ASAP-0008418-001) was 77% and the remaining activity at 10 µM ([12]; batch_name=ASAP-0008418-001) was 95%. For the same molecule, the remaining activity at 10 µM ([13]; batch_name=ASAP-0008418-001) was 92%, the remaining activity at 10 µM ([14]; batch_name=ASAP-0008418-001) was 95% and the remaining activity at 10 µM ([15]; batch_name=ASAP-0008418-001) was 103%. The remaining activity at 10 µM ([16]; batch_name=ASAP-0008418-001) was 81%.
With `CC(C)[C@H](Nc1ncnc2[nH]ccc12)c1ccc2c(c1)S(=O)(=O)CCC2` [ASAP-0008674] the remaining activity at 10 µM ([1]; batch_name=ASAP-0008674-002) was 104%, the remaining activity at 10 µM ([2]; batch_name=ASAP-0008674-002) was 105% and the remaining activity at 10 µM ([3]; batch_name=ASAP-0008674-002) was 93%. The remaining activity at 10 µM ([4]; batch_name=ASAP-0008674-002) was 102%, the remaining activity at 10 µM ([5]; batch_name=ASAP-0008674-002) was 87% and the remaining activity at 10 µM ([6]; batch_name=ASAP-0008674-002) was 95%. It also gave a remaining activity at 10 µM ([7]; batch_name=ASAP-0008674-002) of 102%, a remaining activity at 10 µM ([8]; batch_name=ASAP-0008674-002) of 94% and a remaining activity at 10 µM ([9]; batch_name=ASAP-0008674-002) of 100%. The remaining activity at 10 µM ([10]; batch_name=ASAP-0008674-002) was 84%, the remaining activity at 10 µM ([11]; batch_name=ASAP-0008674-002) was 98% and the remaining activity at 10 µM ([12]; batch_name=ASAP-0008674-002) was 102%. It also gave a remaining activity at 10 µM ([13]; batch_name=ASAP-0008674-002) of 89%, a remaining activity at 10 µM ([14]; batch_name=ASAP-0008674-002) of 95% and a remaining activity at 10 µM ([15]; batch_name=ASAP-0008674-002) of 90%. It also gave a remaining activity at 10 µM ([16]; batch_name=ASAP-0008674-002) of 107%.
`CC(C)[C@H](Nc1ncnc2[nH]c(-c3cnn(C)c3C#N)cc12)c1ccc2c(n1)OCCO2` [ASAP-0010715] gave a remaining activity at 10 µM ([1]; batch_name=ASAP-0010715-002) of 111%, a remaining activity at 10 µM ([2]; batch_name=ASAP-0010715-002) of 57% and a remaining activity at 10 µM ([3]; batch_name=ASAP-0010715-002) of 89%. The remaining activity at 10 µM ([4]; batch_name=ASAP-0010715-002) was 104%, the remaining activity at 10 µM ([5]; batch_name=ASAP-0010715-002) was 95% and the remaining activity at 10 µM ([6]; batch_name=ASAP-0010715-002) was 90%. For the same molecule, the remaining activity at 10 µM ([7]; batch_name=ASAP-0010715-002) was 102%, the remaining activity at 10 µM ([8]; batch_name=ASAP-0010715-002) was 98% and the remaining activity at 10 µM ([9]; batch_name=ASAP-0010715-002) was 85%. The remaining activity at 10 µM ([10]; batch_name=ASAP-0010715-002) was 73%, the remaining activity at 10 µM ([11]; batch_name=ASAP-0010715-002) was 95% and the remaining activity at 10 µM ([12]; batch_name=ASAP-0010715-002) was 99%. The remaining activity at 10 µM ([13]; batch_name=ASAP-0010715-002) was 82%, the remaining activity at 10 µM ([14]; batch_name=ASAP-0010715-002) was 90% and the remaining activity at 10 µM ([15]; batch_name=ASAP-0010715-002) was 94%. It also gave a remaining activity at 10 µM ([16]; batch_name=ASAP-0010715-002) of 97%.

— publication doi:10.1101/2024.08.19.608619, “Discovery of potent SARS-CoV-2 nsp3 macrodomain inhibitors uncovers lack of translation to cellular antiviral response” (bioRxiv, 2024)
